The record followed here is ChEMBL document CHEMBL4382249, “1-Arylsulfonyl indoline-benzamides as a new antitubulin agents, with inhibition of histone deacetylase” (Eur J Med Chem, 2019).

Molecules are shown by their SMILES.

A word on the IC50: it is the concentration that inhibits the measured activity by half. Lower therefore signals higher potency. The inhibition is the percentage by which the read-out fell short of the control. A high value points to a strong effect.

One assay deals with KB. Briefly: Growth inhibition of human KB cells after 48 hrs by SRB assay. Type of assay: functional, cell-based. Background: Sulforhodamine B stains cellular protein and so reports cell mass.
The subject of the next assay is MKN-45. Briefly: Growth inhibition of human MKN45 cells after 48 hrs by SRB assay. It counts as functional, cell-based. The following applies: MKN-45, 48 h.
For the next assay, the target named is Tubulin (Bos taurus, UniProt Q6B856+Q862L2+Q862F3).
A further assay relates to A549. Briefly: Growth inhibition of human A549 cells after 48 hrs by SRB assay. Type of assay: functional, cell-based. The following applies: A549, 48 h.
For assay [1], the target named is T1, Tubulin (Bos taurus) (UniProt Q6B856+Q862L2+Q862F3). Particulars: at 1 µM; call rule not given here.
A short description of assay [2]: Growth inhibition of human KB-S15 cells after 48 hrs by SRB assay. It counts as functional. Particulars: KB-S15, 48 h.
Assay [3] is described as follows: Growth inhibition of human KB-7d cells after 48 hrs by SRB assay. It counts as functional. The following applies: KB7D.
The nature of assay [4]: Growth inhibition of human KB-VIN10 cells after 48 hrs by SRB assay. Type of assay: functional. The following applies: KB-VIN10, 48 h.
Assay [5] addresses T1, Tubulin (Bos taurus). The following applies: at 5 µM.
The next assay concerns the target Histone deacetylase 9 (Homo sapiens, UniProt Q9UKV0). Kind of assay: Inhibition of human HDAC9 using fluorogenic p53 (379-382) peptide RHKK(Ac) as substrate by fluorescence assay.
Assay [6] addresses T2, Polyamine deacetylase HDAC10 (Homo sapiens, UniProt Q969S8).
T2 sequence (Q969S8 whole entry): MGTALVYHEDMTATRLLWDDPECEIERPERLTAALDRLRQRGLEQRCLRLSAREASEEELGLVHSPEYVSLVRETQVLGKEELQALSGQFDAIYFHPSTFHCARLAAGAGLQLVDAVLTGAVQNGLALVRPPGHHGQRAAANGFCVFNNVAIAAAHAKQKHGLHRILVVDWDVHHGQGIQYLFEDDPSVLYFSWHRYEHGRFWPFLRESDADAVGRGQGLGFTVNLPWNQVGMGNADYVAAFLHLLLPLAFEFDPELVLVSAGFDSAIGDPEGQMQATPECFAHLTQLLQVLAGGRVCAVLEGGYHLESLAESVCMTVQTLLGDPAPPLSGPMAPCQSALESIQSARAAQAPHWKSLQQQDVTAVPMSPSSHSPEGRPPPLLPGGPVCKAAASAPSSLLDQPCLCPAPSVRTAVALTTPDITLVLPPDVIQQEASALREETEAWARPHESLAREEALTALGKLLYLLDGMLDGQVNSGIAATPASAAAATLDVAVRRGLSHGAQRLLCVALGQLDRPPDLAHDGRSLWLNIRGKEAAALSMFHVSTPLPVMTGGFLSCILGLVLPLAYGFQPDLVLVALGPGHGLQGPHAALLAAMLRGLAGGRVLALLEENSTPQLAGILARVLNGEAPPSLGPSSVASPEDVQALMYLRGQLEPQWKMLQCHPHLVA
Kind of assay: Inhibition of human HDAC10 using RHKKAc as substrate by fluorescence assay.

The target of the next assay is Histone deacetylase 4 (Homo sapiens, UniProt P56524). Briefly: Inhibition of human HDAC4 using fluorogenic p53-derived peptide RHKK(Ac) as substrate by fluorescence assay.
Chain of Histone deacetylase 4 (P56524 whole entry): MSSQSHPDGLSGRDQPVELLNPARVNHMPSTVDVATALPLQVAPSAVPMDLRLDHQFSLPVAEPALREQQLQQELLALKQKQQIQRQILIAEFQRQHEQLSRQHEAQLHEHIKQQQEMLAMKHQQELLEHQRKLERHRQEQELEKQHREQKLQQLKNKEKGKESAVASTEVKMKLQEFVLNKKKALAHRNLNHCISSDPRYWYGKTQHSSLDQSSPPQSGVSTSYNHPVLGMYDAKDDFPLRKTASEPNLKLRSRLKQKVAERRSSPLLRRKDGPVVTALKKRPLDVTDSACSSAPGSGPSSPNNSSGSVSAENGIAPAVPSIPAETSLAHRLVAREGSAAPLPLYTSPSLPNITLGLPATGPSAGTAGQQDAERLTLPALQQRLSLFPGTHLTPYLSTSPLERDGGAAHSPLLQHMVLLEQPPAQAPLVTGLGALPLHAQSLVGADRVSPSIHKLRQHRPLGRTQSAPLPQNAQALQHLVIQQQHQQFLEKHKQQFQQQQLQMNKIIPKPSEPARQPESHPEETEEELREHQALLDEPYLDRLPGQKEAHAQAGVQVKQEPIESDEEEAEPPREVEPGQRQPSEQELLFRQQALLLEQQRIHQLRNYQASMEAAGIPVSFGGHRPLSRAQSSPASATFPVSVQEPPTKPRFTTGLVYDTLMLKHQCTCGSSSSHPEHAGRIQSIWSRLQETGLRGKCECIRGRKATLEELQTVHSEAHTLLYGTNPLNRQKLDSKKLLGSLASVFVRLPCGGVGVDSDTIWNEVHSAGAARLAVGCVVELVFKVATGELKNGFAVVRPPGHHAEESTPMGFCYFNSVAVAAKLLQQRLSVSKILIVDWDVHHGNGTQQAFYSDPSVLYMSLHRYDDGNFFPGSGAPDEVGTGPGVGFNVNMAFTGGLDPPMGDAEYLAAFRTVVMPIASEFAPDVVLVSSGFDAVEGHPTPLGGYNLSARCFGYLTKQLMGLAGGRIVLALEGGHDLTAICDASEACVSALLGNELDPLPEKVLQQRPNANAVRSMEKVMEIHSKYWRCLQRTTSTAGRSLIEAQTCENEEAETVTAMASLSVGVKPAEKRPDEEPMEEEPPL

Chain of Histone deacetylase 9 (Q9UKV0 whole entry): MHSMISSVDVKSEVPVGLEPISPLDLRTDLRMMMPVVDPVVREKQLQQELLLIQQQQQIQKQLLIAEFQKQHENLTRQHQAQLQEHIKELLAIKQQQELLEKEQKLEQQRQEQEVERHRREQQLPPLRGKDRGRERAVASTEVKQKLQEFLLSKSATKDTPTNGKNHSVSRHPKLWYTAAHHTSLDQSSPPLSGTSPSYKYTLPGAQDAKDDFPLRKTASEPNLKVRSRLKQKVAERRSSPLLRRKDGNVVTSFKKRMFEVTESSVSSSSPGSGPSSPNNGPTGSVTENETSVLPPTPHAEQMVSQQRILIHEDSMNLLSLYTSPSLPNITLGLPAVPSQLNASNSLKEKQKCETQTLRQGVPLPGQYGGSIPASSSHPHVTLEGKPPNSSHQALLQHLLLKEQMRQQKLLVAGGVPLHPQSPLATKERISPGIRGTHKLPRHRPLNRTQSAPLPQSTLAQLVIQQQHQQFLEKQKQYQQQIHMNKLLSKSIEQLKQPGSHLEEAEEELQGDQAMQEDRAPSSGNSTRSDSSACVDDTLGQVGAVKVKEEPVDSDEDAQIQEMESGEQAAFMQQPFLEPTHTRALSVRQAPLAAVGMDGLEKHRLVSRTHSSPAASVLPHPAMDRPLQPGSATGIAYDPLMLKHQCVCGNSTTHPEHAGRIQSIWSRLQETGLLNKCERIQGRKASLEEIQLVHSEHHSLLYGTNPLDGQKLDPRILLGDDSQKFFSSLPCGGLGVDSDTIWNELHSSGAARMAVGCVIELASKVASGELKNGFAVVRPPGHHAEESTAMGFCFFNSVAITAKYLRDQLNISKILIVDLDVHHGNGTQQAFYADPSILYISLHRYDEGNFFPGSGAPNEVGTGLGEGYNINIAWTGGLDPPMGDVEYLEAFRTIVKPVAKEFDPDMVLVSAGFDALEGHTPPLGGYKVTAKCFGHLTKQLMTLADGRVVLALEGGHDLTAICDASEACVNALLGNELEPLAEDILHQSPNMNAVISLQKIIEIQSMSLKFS

With `COc1ccc(S(=O)(=O)n2ccc3cccc(NCc4ccc(C(=O)Nc5ccccc5N)cc4)c32)cc1`, the IC50 in the assay on KB is 0.13 µM; in the assay with MKN-45, 0.44 µM; on Tubulin, 3.7 µM; with A549 it was 0.64 µM.
The corresponding values for `N#Cc1ccc(S(=O)(=O)N2CCc3cccc(NCc4ccc(C(=O)Nc5ccccc5N)cc4)c32)cc1` are 0.56 µM, 0.88 µM, 6.4 µM and 0.92 µM.
The corresponding values for `COc1ccc(S(=O)(=O)N2CCc3cccc(NCc4ccc(C(=O)Nc5ccc(N)cc5)cc4)c32)cc1` are 0.26 µM, 0.48 µM, 3.7 µM and 0.57 µM.
With `COc1ccc(S(=O)(=O)N2CCc3cccc(Nc4ccc(C(=O)Nc5ccccc5N)cc4)c32)cc1`, the IC50 amounted to 0.12 µM in the assay on KB; 0.14 µM in the assay with MKN-45; 0.106 µM in assay [2]; 2.3 µM against Tubulin; 0.19 µM with A549; 0.0783 µM in assay [3]. The molecule further returned a half-maximal inhibitory concentration (IC50) in assay [4] of 0.114 µM. The inhibition against Tubulin (Bos taurus) [1] came out at 64.3%; on Tubulin (Bos taurus) [5], 98.8%.
For the molecule `COc1ccc(S(=O)(=O)N2CCc3cccc(NCc4cccc(C(=O)Nc5ccccc5N)c4)c32)cc1`, the concentration for half-maximal inhibition (IC50) was 2.2 µM in the assay on KB, 3.9 µM in the assay with MKN-45, 8.5 µM against Tubulin and 5.7 µM in the assay on A549.
The corresponding values for `COc1ccc(S(=O)(=O)N2CCc3cccc(CCc4ccc(C(=O)Nc5ccccc5N)cc4)c32)cc1` are 0.11 µM, 0.13 µM, 2.5 µM and 0.2 µM.
Taken in the same sequence, the figures for `COc1ccc(S(=O)(=O)N2CCc3cccc(NCc4ccc(C(=O)Nc5ccccc5N)cc4)c32)cc1OC` were 1.4 µM, 2.3 µM, more than 10 µM and 2.7 µM.
The corresponding values for `COc1ccc(S(=O)(=O)n2ccc3ccc(NCc4ccc(C(=O)Nc5ccccc5N)cc4)cc32)cc1` are 1.44 µM, 2.5 µM, more than 10 µM and 3.9 µM.
For `Nc1ccccc1NC(=O)c1ccc(CNC(=O)OCc2cccnc2)cc1` [ENTINOSTAT], the IC50 with KB is 0.52 µM; against Histone deacetylase 9 it was “Not Active”; in the assay with MKN-45, 1.2 µM; in assay [6], “Not Active”; against Histone deacetylase 4, “Not Active”.
Regarding `COc1ccc(S(=O)(=O)Nc2cccnc2Nc2ccc(O)cc2)cc1` [ABT-751], the inhibition came out at 40.2% against Tubulin (Bos taurus) [1] and 71.6% on Tubulin (Bos taurus) [5]. The molecule also had an IC50 on Tubulin of 3.2 µM.
Turning to `COc1ccc(S(=O)(=O)N2CCc3cccc(NC(=O)c4ccc(C(=O)Nc5ccccc5N)cc4)c32)cc1`, the IC50 in the assay with A549 was more than 10 µM.
`Nc1ccccc1NC(=O)c1ccc(CNc2cccc3c2N(S(=O)(=O)c2ccc(O)cc2)CC3)cc1`: the IC50 turned out to be 0.44 µM with KB, 0.78 µM with MKN-45, 3.3 µM against Tubulin and 0.86 µM with A549.
On to `Nc1ccccc1NC(=O)c1ccc(CNc2cccc3c2N(S(=O)(=O)c2ccc(Cl)cc2)CC3)cc1`, for which the IC50 with KB amounted to 0.21 µM; in the assay with MKN-45 it was 0.46 µM; against Tubulin, 4 µM; in the assay with A549 it was 0.56 µM.
The corresponding values for `COc1ccc(S(=O)(=O)N2CCc3cccc(NCc4ccc(C(=O)Nc5ccccc5O)cc4)c32)cc1` are 8.7 µM, 10 µM, more than 10 µM and 10.5 µM.
Taken in the same sequence, the figures for `Nc1ccccc1NC(=O)c1ccc(CNc2cccc3c2N(S(=O)(=O)c2ccccc2)CC3)cc1` were 0.26 µM, 0.78 µM, 3.2 µM and 0.87 µM.
Regarding `COc1ccc(S(=O)(=O)N2CCc3cc(NCc4ccc(C(=O)Nc5ccccc5N)cc4)ccc32)cc1`, the 50% inhibitory concentration (IC50) in the assay with KB was 2.1 µM; with MKN-45 it was 5 µM; on Tubulin, more than 10 µM; in the assay with A549, 8.9 µM.
The corresponding values for `Nc1ccccc1NC(=O)c1ccc(CNc2cccc3c2N(S(=O)(=O)c2ccc(F)cc2)CC3)cc1` are 0.54 µM, 0.87 µM, 3.7 µM and 0.93 µM.
The corresponding values for `COc1ccc(S(=O)(=O)N2CCc3cccc(/C=C/c4ccc(C(=O)Nc5ccccc5N)cc4)c32)cc1` are 0.23 µM, 0.2 µM, 2.7 µM and 0.27 µM.
Taken in the same sequence, the figures for `COc1ccc(S(=O)(=O)N2CCc3cccc(NCc4ccc(C(=O)Nc5cccc(N)c5)cc4)c32)cc1` were 0.2 µM, 0.42 µM, 2.3 µM and 0.45 µM.
Regarding `COc1cccc(S(=O)(=O)N2CCc3cccc(NCc4ccc(C(=O)Nc5ccccc5N)cc4)c32)c1`, the IC50 in the assay on KB is 0.78 µM; with MKN-45, 0.8 µM; at Tubulin, 3.5 µM; in the assay on A549, 1.1 µM.
As to `COc1ccc(S(=O)(=O)N2CCc3ccc(NCc4ccc(C(=O)Nc5ccccc5N)cc4)cc32)cc1`, the IC50 with KB was 0.87 µM; in the assay with MKN-45, 2.1 µM; against Tubulin it was more than 10 µM; with A549, 2.4 µM.
